Results published in patent US20240042019A1, “OPTIMIZED TLR7 LIGANDS AND USES THEREOF” (Genentech, Inc., priority 2021, published 2024).

Columns and labels:
TLR8 = molecular target: T1, TLR8 (Homo sapiens, UniProt Q9NR97); assay: PBMC stimulation with DOTAP-complexed RNA ligands, TNF-α ELISA; assay type: cell-based
T1 construct: Peripheral blood mononuclear cells (PBMCs) were obtained from buffy coats from healthy adult donors; endogenous in cells; host or cells: primary human PBMCs from healthy donor buffy coats (TLR8 in monocytes)
T1 sequence (Q9NR97 27-1041): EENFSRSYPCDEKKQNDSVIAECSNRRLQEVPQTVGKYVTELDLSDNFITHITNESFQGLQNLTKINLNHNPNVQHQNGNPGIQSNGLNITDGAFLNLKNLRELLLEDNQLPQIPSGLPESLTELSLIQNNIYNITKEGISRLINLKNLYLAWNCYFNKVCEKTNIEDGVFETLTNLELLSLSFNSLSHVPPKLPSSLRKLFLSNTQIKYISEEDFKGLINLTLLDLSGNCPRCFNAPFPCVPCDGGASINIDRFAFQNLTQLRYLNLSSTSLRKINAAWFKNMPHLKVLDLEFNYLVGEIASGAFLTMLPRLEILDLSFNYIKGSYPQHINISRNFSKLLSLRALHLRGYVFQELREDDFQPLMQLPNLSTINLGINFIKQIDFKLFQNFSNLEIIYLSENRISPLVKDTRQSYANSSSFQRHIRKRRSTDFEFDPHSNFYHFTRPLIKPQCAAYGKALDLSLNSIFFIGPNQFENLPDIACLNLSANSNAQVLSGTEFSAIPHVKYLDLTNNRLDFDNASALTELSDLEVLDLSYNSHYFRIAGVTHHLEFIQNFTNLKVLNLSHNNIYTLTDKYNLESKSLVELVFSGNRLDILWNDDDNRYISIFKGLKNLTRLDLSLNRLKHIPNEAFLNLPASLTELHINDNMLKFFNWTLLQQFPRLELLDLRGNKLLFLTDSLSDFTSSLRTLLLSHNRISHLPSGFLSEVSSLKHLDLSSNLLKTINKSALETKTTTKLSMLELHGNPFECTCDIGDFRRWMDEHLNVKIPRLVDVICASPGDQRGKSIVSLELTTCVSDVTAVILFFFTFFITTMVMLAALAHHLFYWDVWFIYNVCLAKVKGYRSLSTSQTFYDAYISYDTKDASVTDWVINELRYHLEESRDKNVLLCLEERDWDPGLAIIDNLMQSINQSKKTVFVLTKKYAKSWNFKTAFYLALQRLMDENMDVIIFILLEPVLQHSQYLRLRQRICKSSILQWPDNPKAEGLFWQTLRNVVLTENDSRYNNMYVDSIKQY

TLR7 [1] = molecular target: T2, TLR7 (Homo sapiens, UniProt Q9NYK1); assay: PBMC stimulation with p-L-arginine-complexed RNA ligands, IFN-α ELISA; assay type: cell-based
T2 construct: Peripheral blood mononuclear cells (PBMCs) were obtained from buffy coats from healthy adult donors; endogenous in cells; host or cells: primary human PBMCs from healthy donor buffy coats (TLR7 expressed by pDCs)
T2 sequence (Q9NYK1 27-1049): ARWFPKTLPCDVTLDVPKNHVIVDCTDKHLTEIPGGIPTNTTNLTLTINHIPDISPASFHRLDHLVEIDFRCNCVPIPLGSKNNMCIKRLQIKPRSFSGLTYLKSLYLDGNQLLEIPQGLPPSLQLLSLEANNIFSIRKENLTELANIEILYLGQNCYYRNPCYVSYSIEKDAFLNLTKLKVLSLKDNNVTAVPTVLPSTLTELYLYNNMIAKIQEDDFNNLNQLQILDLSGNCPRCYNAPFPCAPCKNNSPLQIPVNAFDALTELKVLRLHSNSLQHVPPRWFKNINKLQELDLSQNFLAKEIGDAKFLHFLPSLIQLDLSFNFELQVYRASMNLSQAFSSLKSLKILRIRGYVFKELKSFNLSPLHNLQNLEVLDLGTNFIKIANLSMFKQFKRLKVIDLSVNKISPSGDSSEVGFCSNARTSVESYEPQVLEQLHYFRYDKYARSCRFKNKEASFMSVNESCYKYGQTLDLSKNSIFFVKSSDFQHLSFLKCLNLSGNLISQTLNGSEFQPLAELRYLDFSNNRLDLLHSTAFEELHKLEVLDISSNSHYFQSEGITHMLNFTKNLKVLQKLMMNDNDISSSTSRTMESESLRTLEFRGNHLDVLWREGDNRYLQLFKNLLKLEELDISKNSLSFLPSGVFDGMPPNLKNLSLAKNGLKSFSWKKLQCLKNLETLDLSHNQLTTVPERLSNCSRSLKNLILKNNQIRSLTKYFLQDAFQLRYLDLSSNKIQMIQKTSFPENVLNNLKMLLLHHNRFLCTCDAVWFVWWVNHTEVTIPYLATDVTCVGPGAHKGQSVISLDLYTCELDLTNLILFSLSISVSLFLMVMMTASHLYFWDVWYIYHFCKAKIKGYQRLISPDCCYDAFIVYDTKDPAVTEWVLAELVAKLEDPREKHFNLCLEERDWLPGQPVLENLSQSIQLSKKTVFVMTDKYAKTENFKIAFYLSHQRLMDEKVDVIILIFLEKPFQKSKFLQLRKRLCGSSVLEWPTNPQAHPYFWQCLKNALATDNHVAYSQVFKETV
Protocol: Peripheral blood mononuclear cells (PBMCs) were obtained from buffy coats from healthy adult donors. Buffy coat samples were first diluted with an equal volume of phosphate-buffered saline (PBS). Next, PBMCs were isolated via density gradient centrifugation with Lymphoprep density gradient media ([…] Technologies) and SepMate-50 tubes ([…] Technologies). Samples were centrifuged at 1000 g for 15 minutes. After centrifugation, the upper layers were collected by pouring into a new tube, diluted with PBS, and centrifuged at 450×g for 5 minutes. To lyse red blood cells, cell pellets were resuspended with 10 mL Ammonium-Chloride-Potassium (ACK) Lysis Buffer and incubated for 8 minutes at room temperature. After lysis, cells were washed with PBS and passed through two 70 μm cell strainers. Viable cell counts were determined with a Vi-CELL cell counter (Beckman Coulter). […] Guanosine was added between about 20 and about 30 minutes before the addition of poly-[…])-complexed RNA. […] After mixing by pipetting up and down, the reaction was incubated for 10 minutes, pipetted up and down again, and then added to the cells. In some experiments, RNA ligands were used at a final concentration of 0.6 μg/ml. Where indicated as “+2'3' cGMP”, 2'3' cyclic GMP purchased from eMolecules was complexed together with the RNA ligands. The final concentration of 2'3' cyclic GMP was 5 μg/ml. p-L-arginine was adjusted accordingly to keep the mass ratio of nucleic acid:p-L-arginine constant. Cell culture supernatants were collected 15-18 hours after stimulation and stored at -80° C. Cytokines in cell culture supernatants were detected with the BD OptEIA human TNF ELISA Set (BD Biosciences), and either Invitrogen IFN alpha Human Matched Antibody Pair kit (Thermo Fisher Scientific) or Human IFN Alpha Multi-Subtype ELISA Kit (PBL Assay Science). To test the effects of the RNA ligands described in Example 1 on TLR7 and TLR8 activation, PBMCs were stimulated with the RNA ligands using p-L-arginine complex delivery, delivery with DOTAP, or delivery without a carrier. Activity of TLR7 and TLR8 was assessed based on measurements of IFN-α or TNF-α by enzyme-linked immunosorbent assays (ELISA). In this setting, as depicted in FIG. 6, IFN-α induced by small RNAs is derived from TLR7 expressed by pDCs, or from RIG-I expressed by monocytes. In contrast, TNF-α secretion is derived from monocytes and serves as an indication of TLR8 activation. As shown in this figure, the p-L-arginine delivery restricts most of the activation to TLRs. First, the effects of the RNA ligands on TLR7 and TLR8 activation using p-L-arginine complex delivery were tested.

recombinant RNase T2 = recombinant RNase T2 (Homo sapiens, UniProt O00584)
recombinant RNase T2, sequence (O00584 25-256, species assumed): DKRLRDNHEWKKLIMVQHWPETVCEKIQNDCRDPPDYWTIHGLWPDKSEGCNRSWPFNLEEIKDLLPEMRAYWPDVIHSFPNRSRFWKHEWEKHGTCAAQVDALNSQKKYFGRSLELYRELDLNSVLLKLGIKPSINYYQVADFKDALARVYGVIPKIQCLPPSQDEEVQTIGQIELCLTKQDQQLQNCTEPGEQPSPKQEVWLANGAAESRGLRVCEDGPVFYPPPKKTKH

TLR7 [2] = molecular target: T2, TLR7; assay: PBMC stimulation with DOTAP-complexed RNA ligands, IFN-α ELISA; assay type: cell-based

## CCUUCUUCUUCUUCUUCUUC (CCUUCUUCUUCUUCUUCUUC; all phosphodiester, sugars by position not given here) [ORN7009, reference compound]
TLR8
  TNF-α secretion (TLR8 activity): activated TLR8
TLR7 [1]
  IFN-α secretion (TLR7 activity): no or only minor IFN-α secretion
Recombinant RNase T2
  Degradation of full RNA ligand by RNase T2: degraded more quickly
TLR7 [2]
  IFN-α secretion (TLR7 activity): activated TLR8 rather than TLR7
